The source of these data is paper PMC8740778, “Translational Pharmacokinetic–Pharmacodynamic Modeling of NaV1.7 Inhibitor MK-2075 to Inform Human Efficacious Dose” (Frontiers in Pharmacology, 2021).

Marks after values point to notes of the source that are not given here.

For series [1] the following is noted: trough plasma concentration just prior to patient-controlled subsequent dose; postoperative pain; ref Dahlstrom et al., 1982 (morphine), Lehmann et al., 1990 (tramadol); cited from earlier work.
For another series, the system named is BALB/c male mice. Put plainly: Mouse tail flick latency. It is filed as in vivo. Conditions: at clinical efficacious concentrations. A general note: Hot-plate and tail-flick tests time the reaction to a heat stimulus.
Details of series [2]: method as in Rothenberg et al., 2019. Conditions: healthy volunteers; no exposure-related pattern; ref Rothenberg et al., 2019; cited from earlier work.

Regarding `COc1cccc(C2(O)CCCCC2CN(C)C)c1` (centres unmarked) [Tramadol], the “Clinical MEC, mean (range)” value in series [1] was 1.092 (0.077–3.744) ^c µM. In addition, the “Percent of the maximum possible effect in mouse tail flick latency” value with BALB/c male mice is on record as “approximately 50%”.
With `CN1CC[C@]23c4c5ccc(O)c4O[C@H]2[C@@H](O)C=C[C@H]3[C@H]1C5` [Morphine], the “Clinical MEC, mean (range)” value in series [1] is on record as 0.074 (0.032–0.116) ^b µM. The “Percent of the maximum possible effect in mouse tail flick latency” value in the series on BALB/c male mice is reported as “approximately 50%”.
Consider `O=C(NS(=O)(=O)N1CCC1)c1cc(C2CC2)c(OCC23CC4CC(CC(C4)C2)C3)cc1F` [GDC-0276], for which the “Hyposmia (reduced sense of smell) in clinical study” value in series [2] is listed as “a couple of incidents of hyposmia were reported”.
